# Key:
# OP9 cells [1] = assay: CCK-8 cell viability assay; assay type: cell-based; conditions: 48 h, CCK-8, n = 6, tested 6.25 to 100 µg mL^−1, read-out: concentration showing the median inhibitory effect on OP9 cells
# Procedure: macropinocytosis, actin microfilament, and microtubule. The OP9 cells were pretreated with five inhibitors separately in 2% FBS culture media for 1 h, then the culture media was replaced with new culture media simultaneously containing OGP-tFNAs-Cy5 and different inhibitors for another 6 h. After that, the samples were collected for flow cytometric analysis and confocal microscopy observation for fluorescence intensity detection.
# Cell viability assay: Cell Counting Kit-8 (CCK-8) assay was applied to detect the cell viability after treatment with tFNAs, OGP and OGP-tFNAs with different […]
# Cell cycle, senescence and apoptosis detection: Cell cycle and apoptosis were detected via flow cytometric analysis. […]
# treatment (25 μg/mL). The cell cycle was detected using cell cycle detection Kit (KeyGEN, Jiangsu, China). […] After that, the samples were rinsed with PBS and incubated with RNase for 30 min in 37℃ water-bath, then incubated with Propidium Iodide (PI) for 30min and detected via flow cytometry. The cell apoptosis was detected using Annexin V-FITC/PI apoptosis detection kit (KeyGEN, Jiangsu, China).
# After the cells were collected and resuspended with 500 μL binding buffer, 5 μL Annexin V-FITC and 5 μL PI were added into the binding buffer. After 5-15 min incubation, the samples were detected via flow cytometry. […]
# OP9 cells [2] = assay: Apoptosis by flow cytometry (Annexin V-FITC/PI); assay type: cell-based; conditions: 5-FU group, 25 µg mL^−1, 24 h
# Procedure: Cell cycle, senescence and apoptosis detection: Cell cycle and apoptosis were detected via flow cytometric analysis. OP9 cells were cultured in 6-well plates and
# treatment (25 μg/mL). […] The cell apoptosis was detected using Annexin V-FITC/PI apoptosis detection kit (KeyGEN, Jiangsu, China).
# [3] = system: SCF production in OP9 cells; assay: SCF expression (immunofluorescence, Western blot); assay type: cell-based; conditions: 25 µg mL^−1 5-FU, 24 h; n = 3
# Procedure: staining buffer (2% FBS in PBS), then immunofluorescent staining was performed for later flow cytometry (PE anti-γ-H2AX, Biolegend, 1:20).
# Western blotting: The total protein was extracted using Total Protein Extraction Kit (KeyGEN, Jiangsu, China) according to the standard protocol. After protein extraction and boiling denaturation, the proteins were separated using 10-15% SDS-PAGE and transferred to PVDF membranes. Then the samples were blocked with blocking buffer (QuickBlock™ Blocking Buffer, Beyotime Biotechnology, Shanghai, China) for 15min, and then incubated with related primary antibodies (anti-GAPDH, CST, 1:1000; anti-Bcl-2, CST, […]; anti-Bax, CST; anti-Caspase-3, […]
# 1:500; anti-γ-H2AX, abcam, 1:5000) overnight at 4 ℃. At the second day, the samples were incubated with related secondary antibodies for 1h and detected using Gel & Blot Imaging system (ChemiDoc MP, Bio-Rad, USA). […]
# another 24-h 5-FU treatment. […] Finally, the samples were detected using fluorescence confocal microscope (FV3000, Olympus, Japan).
# Plasma pharmacokinetics: Plasma pharmacokinetics experiment was performed to investigate the in vivo metabolism of tFNAs and OGP-tFNAs. tFNAs-Cy5 and OGP-tFNAs-Cy5 were administrated via tail vein injection. […] Finally, the blood samples were detected using the channel of Cy5 fluorescence of Gel & Blot Imaging system (ChemiDoc MP, Bio-Rad, USA). […]
# OP9 cells [4] = assay: Cellular internalization mechanism of OGP-tFNAs with endocytosis inhibitors; assay type: cell-based; conditions: 1 h inhibitor pretreatment in 2% FBS medium then 6 h with OGP-tFNAs-Cy5, 20 μM for Dynasore and Cytochalasin D, flow cytometry, n = 3
# Procedure: Cell culture and treatment: Bone marrow stromal OP9 cells were purchased from
# National Collection of Authenticated Cell Cultures (Shanghai, China). The cells were
# cultured in α-MEM with 1% penicillin-streptomycin and 20% FBS at 37 ° C in 5%
# CO2. When the cell intensity approached 80%-90%, OP9 cells were recultivated in
# internalization of tFNAs, and the influence of tFNAs as drug carriers on the cellular
# labeled with FITC fluorescence. After the cells were treated with tFNAs-Cy5 and
# harvested for flow cytometric analysis (Attune® NxT, Invitrogen, USA) and confocal
# fluorescence microscopy observation (FV3000, Olympus, Japan).
# (Methyl-β-cyclodextrin, MedChemExpress, USA; Dynasore, MedChemExpress, USA;
# Nocodazole, MedChemExpress, USA; Amiloride hydrochloride, Abcam, USA;
# Cytochalasin D, Abcam, USA) were used to inhibit the clathrin, caveolae,
# ICR mice = conditions: mouse, in vivo, ip, 150 mg/kg
# Procedure: 6–8 weeks male ICR mice (Dossy Experimental Animals Co, Ltd., Chengdu, China) were raised in specific pathogen‐free (SPF) environment with stable temperature and 12 h light/dark cycle.
# Myelosuppression induction and systematic drug delivery: The mice were divided
# into five groups: 1) Control group; 2) Saline + myelosuppression group; 3) tFNAs +
# myelosuppression group. For myelosuppression groups, the mice were continuously
# intraperitoneal injection (i.p.) for 3 days (days 4-6) for myelosuppression induction.
# For normal group, the same volume of saline was delivered via tail intravenous
# injection at days 1-9 and PBS via intraperitoneal injection at days 4-6. At day 10, all
# the mice were sacrificed for later detections.
# Histological detections: As main hematopoietic organs, femurs and sternums were
# collected and fixed in 4% paraformaldehyde. After decalcification for 3-4 weeks in
# EDTA decalcifying solution (Servicebio, Wuhan, China), the samples were
# dehydrated and embedded in paraffin. Then, the samples were coronally sectioned
# along the long axis of the femurs and sternums, then Hematoxylin-Eosin (H&E)
# staining was performed to observe the histological changes. Meanwhile, as major
structure (smiles),measurement,setting,value
"O=c1[nH]cc(F)c(=O)[nH]1 [5-FU, 5‐fluorouracil]",IC50,OP9 cells [1],25 µg/mL
same,number of dead OP9 cells,OP9 cells [2],≈ 30%
same,reduction of SCF production in OP9 cells,[3],≈ 50%
C=C1[C@@H](C)[C@H]2[C@H](Cc3ccccc3)NC(=O)[C@]23[C@H](OC(C)=O)/C=C/[C@@](C)(O)C(=O)[C@@H](C)C/C=C/[C@H]3[C@@H]1O [Cytochalasin D],inhibition of internalization of OGP-tFNAs,OP9 cells [4],more significant inhibition ratios
O=C(N/N=C/c1ccc(O)c(O)c1)c1cc2ccccc2cc1O [Dynasore],inhibition of internalization of OGP-tFNAs,OP9 cells [4],more significant inhibition ratios
O=P1(N(CCCl)CCCl)NCCCO1 (stereo not drawn) [cyclophosphamide],share of the bone marrow cavity filled by bone marrow cells,ICR mice,20–30%

# Source: PMC9507378 (Advanced Science, 2022)
